Patent US12600726B2, “Antagonists of the muscarinic acetylcholine receptor M4” (Vanderbilt University, priority 2017, dated 2026)

Tests used:
[1] = test system: haloperidol-induced catalepsy; test: haloperidol-induced catalepsy, a model of parkinsonian motor disability; format: in vivo, mice
Excerpt: Furthermore, haloperidol-induced catalepsy, a model of parkinsonian motor disability, is reduced in M4 knockout mice as compared to wild-type controls. […] The reversal by scopolamine was uncommonly robust and more pronounced than we observe with agents targeting a number of other targets being evaluated for potential antiparkinsonian effects, including metabotropic glutamate (mGlu) receptors mGlu4 or mGlu5, A2A adenosine receptors, and NMDA receptors. […] Taken together with the extensive studies of M4 modulation of basal ganglia and motor function, these studies provide compelling evidence that M4 is the dominant mAChR subtype involved in the antiparkinsonian effects of non-selective mAChR antagonists and provide support for discovery and development of selective M4 antagonists for treatment of neurodegenerative disease such as PD, dystonia, tardive dyskinesia and other movement disorders.

Mouse M4 = biological target: T1, Mouse M4 (Mus musculus, UniProt P32211); test: mAChR M4 cell-based functional calcium flux assay (mouse M4/Gqi5/CHO cells); settings: for Emin (mouse M4): % ACh maximum at 30 μM; for IC50: decrease of the response to an EC80 concentration of acetylcholine
T1 construct: expressed in transfected cells; host or cells: CHO-K1 (ATCC), stably expressing M4 and Gqi5
T1 sequence (P32211 1-479): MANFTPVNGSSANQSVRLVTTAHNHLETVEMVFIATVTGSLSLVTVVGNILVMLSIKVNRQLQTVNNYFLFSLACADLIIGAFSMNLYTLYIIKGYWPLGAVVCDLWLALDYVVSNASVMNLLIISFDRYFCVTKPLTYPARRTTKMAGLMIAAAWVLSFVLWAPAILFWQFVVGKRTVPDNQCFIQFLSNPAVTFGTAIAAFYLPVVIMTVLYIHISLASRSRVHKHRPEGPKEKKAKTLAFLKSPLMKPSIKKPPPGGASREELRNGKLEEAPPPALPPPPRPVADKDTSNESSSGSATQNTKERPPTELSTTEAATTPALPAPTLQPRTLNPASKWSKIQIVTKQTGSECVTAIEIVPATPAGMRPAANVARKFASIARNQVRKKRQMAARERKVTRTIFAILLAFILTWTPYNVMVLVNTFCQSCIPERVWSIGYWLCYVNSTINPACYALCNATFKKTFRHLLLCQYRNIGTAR
Protocol: Human, rat, or mouse M4. cDNA, along with the chimeric G protein Gqi5, were transfected into Chinese hamster ovary (CHO-K1) cells purchased from the American Type Culture Collection using Lipofectamine2000. M4/Gqi5/CHO cells were grown in Ham's F-12 medium containing 10% heat-inactivated fetal bovine serum (FBS), 20 mM HEPES, 500 μg/mL G418 sulfate, and 200 μg/mL Hygromycin B.
For high throughput measurement of agonist-evoked increases in intracellular calcium, CHO-K1 cells stably expressing muscarinic receptors were plated in growth medium lacking G418 and hygromycin at 15,000 cells/20 μL/well in Greiner 384-well black-walled, tissue culture (TC)-treated, clear-bottom plates (VWR). Cells were incubated overnight at 37° C. and 5% CO2. The next day, cells were washed using an ELX 405 (BioTek) with assay buffer; the final volume was then aspirated to 20 μL. Next, 20 μL of a 2.3 μM stock of Fluo-4/acetoxymethyl ester (Invitrogen, Carlsbad, CA), prepared as a 2.3 mM stock in DMSO and mixed in a 1:1 ratio with 10% (w/v) Pluronic F-127 and diluted in assay buffer, was added to the wells and the cell plates were incubated for 50 min at 37° C. and 5% CO2. Dye was removed by washing with the ELX 405 and the final volume was aspirated to 20 μL. Compound master plates were formatted in a 10 point concentration-response curve (CRC) format (1:3 dilutions) in 100% DMSO with a starting concentration of 10 or 1 mM using a BRAVO liquid handler (Agilent). Test compound CRCs were then transferred to daughter plates (240 nL) using the Echo acoustic plate reformatter (Labcyte, Sunnyvale, CA) and then diluted into assay buffer (40 μL) to a 2× stock using a Thermo Fisher Combi (Thermo Fisher Scientific, Waltham, MA).
Calcium flux was measured using the Functional Drug Screening System (FDSS) 6000 or 7000 (Hamamatsu Corporation, Tokyo, Japan) as an increase in the fluorescent static ratio. Compounds were applied to cells (20 μL, 2×) using the automated system of the FDSS at 2 seconds into the protocol and the data were collected at 1 Hz. At 143 s, 10 μL of an EC20 concentration of the muscarinic receptor agonist acetylcholine was added (5×), followed by the addition of 12 μL of an EC80 concentration of acetylcholine at the 268 s time point (5×). Agonist activity was analyzed as a concentration-dependent increase in calcium mobilization upon compound addition. Positive allosteric modulator activity was analyzed as a concentration-dependent increase in the EC20 acetylcholine response. Antagonist activity was analyzed as a concentration-dependent decrease in the EC80 acetylcholine response; for the purposes of the tables herein, an IC50 (inhibitory concentration 50) was calculated as a concentration-dependent decrease of the response elicited by an EC80 concentration of acetylcholine. Concentration-response curves were generated using a four-parameter logistical equation in XLFit curve fitting software (IDBS, Bridgewater, NJ) for Excel (Microsoft, Redmond, WA) or Prism (GraphPad Software, Inc., San Diego, CA) or the Dotmatics software platform (Dotmatics, Bishop's Stortford, UK).
Compounds were synthesized as described above. Activity (IC50 and Emin) was determined in the mAChR M4 cell-based functional assay as described above and the data are shown in Table 2 and Table 3. The compound number corresponds to the compound numbers used in the examples and Tables 1 and 1.1.

Structure (SMILES)	reduction of haloperidol-induced catalepsy ([1]; M4 KO mice)	reversal of haloperidol-induced catalepsy ([1]; WT mice)	Emin (mouse M4) (Mouse M4) [%]	IC50 (Mouse M4) [nM]
CN1[C@@H]2C[C@@H](OC(=O)[C@H](CO)c3ccccc3)C[C@H]1[C@@H]1O[C@@H]12 [scopolamine]	ineffective	completely reversed		
Fc1ccc(Cl)c(-c2ccc(NC[C@@H]3CC34CCN(CC3CCCOC3)CC4)nn2)c1 (stereo partly drawn) [Compound 106, (R)-6-(2-chloro-5-fluoro-phenyl)-N-[[6-(tetrahydropyran-3-ylmethyl)-6-azaspiro[2.5]octan-2-yl]methyl]pyridazin-3-amine]			9	680
CC(C)(C)CCN1CCC2(CC1)CC2CNc1ccc2nncn2n1 (stereo not drawn) [Compound 104, N-[[6-(3,3-dimethylbutyl)-6-azaspiro[2.5]octan-2-yl]methyl]-[1,2,4]triazolo[4,3-b]pyridazin-6-amine]			17	2820
